Experimental findings from ChEMBL document CHEMBL6074668 (J Med Chem, 2024) are described below.

Molecules are shown by their SMILES. Calls of active or inactive are those of the source. No cut-off for these calls is given here. Some results are limits rather than exact numbers.

What is called Emax is the maximal effect, on the per cent scale that the assay sets. By Ki is commonly meant a dissociation constant, usually derived from enzyme kinetics or from competition with a known ligand. The low end stands for a stronger hold on the target, the high end for a looser hold on the target. What is called EC50 is the concentration giving half of the maximal effect.

Data set [1] has as its target Delta-type opioid receptor (Homo sapiens) (UniProt P41143). Nature of the data set: Agonist activity at human delta opioid receptor expressed in CHO-K1 cells assessed as inhibition of forskolin-stimulated cAMP accumulation at <1 uM by HitHunter assay based luminescence analysis. It is filed as functional, cell-based.
The target of data set [2] is T1, Kappa-type opioid receptor (Homo sapiens, UniProt P41145). Nature of the data set: Agonist activity at kappa opioid receptor (unknown origin) expressed in human U2OS cells assessed as beta arrestin2 recruitment at <10 uM incubated for 30 mins by PathHunter assay. Conditions: filed as agonist. It is filed as functional, cell-based. For orientation: Recruitment of arrestin is a read-out of receptor activation apart from second messengers.
T1 sequence (P41145 whole entry): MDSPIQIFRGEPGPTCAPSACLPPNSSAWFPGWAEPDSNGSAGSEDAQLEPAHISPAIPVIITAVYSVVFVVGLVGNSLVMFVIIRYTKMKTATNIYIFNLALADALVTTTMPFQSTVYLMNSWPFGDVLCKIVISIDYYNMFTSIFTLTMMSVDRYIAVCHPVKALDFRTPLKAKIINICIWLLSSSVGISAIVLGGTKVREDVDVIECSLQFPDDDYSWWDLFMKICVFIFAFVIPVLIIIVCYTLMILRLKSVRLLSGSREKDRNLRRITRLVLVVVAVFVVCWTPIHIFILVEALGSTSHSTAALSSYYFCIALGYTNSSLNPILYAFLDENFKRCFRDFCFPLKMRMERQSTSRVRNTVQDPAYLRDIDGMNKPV

For data set [3], the target named is T1, Kappa-type opioid receptor. The data set can be described thus: Agonist activity at human kappa opioid receptor expressed in CHO-K1 cells assessed as inhibition of forskolin-stimulated cAMP accumulation by HitHunter assay based luminescence analysis relative to control. It is filed as functional, cell-based. Conditions: filed as agonist. (In general: Cyclic AMP is a second messenger, typically raised through Gs and lowered through Gi signalling.)

Data set [4] concerns the target T2, Mu-type opioid receptor (Homo sapiens, UniProt P35372). The data set can be described thus: Agonist activity at human mu opioid receptor expressed in CHO-K1 cells assessed as inhibition of forskolin-stimulated cAMP accumulation by HitHunter assay based luminescence analysis relative to control. It is filed as functional, cell-based.
The target in data set [5] is T1, Kappa-type opioid receptor. Nature of the data set: Agonist activity at kappa opioid receptor (unknown origin) assessed as beta arrestin2 recruitment at 3 uM by PRESTO-Tango assay. It is filed as functional. Conditions: filed as agonist.
Data set [6] deals with 5-hydroxytryptamine receptor 5A (Homo sapiens, UniProt P47898). The data set can be described thus: Binding affinity to 5HT5A receptor (unknown origin) by radioligand displacement assay. (In a radioligand displacement assay an active substance lowers the binding of a labelled ligand.)
Chain of 5-hydroxytryptamine receptor 5A (P47898 whole entry): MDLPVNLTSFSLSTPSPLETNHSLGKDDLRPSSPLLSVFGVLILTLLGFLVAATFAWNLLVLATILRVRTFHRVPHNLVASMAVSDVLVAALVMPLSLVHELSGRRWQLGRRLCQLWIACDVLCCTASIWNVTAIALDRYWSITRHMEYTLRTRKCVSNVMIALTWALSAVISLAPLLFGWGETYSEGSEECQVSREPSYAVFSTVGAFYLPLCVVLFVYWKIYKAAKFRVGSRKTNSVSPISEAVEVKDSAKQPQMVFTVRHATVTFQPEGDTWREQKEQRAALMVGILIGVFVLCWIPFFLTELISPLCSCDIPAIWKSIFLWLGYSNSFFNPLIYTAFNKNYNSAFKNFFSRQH
The target in data set [7] is 5-hydroxytryptamine receptor 7 (Homo sapiens, UniProt P34969). Nature of the data set: Binding affinity to 5HT7A receptor (unknown origin) by radioligand displacement assay.
Chain of 5-hydroxytryptamine receptor 7 (P34969 whole entry): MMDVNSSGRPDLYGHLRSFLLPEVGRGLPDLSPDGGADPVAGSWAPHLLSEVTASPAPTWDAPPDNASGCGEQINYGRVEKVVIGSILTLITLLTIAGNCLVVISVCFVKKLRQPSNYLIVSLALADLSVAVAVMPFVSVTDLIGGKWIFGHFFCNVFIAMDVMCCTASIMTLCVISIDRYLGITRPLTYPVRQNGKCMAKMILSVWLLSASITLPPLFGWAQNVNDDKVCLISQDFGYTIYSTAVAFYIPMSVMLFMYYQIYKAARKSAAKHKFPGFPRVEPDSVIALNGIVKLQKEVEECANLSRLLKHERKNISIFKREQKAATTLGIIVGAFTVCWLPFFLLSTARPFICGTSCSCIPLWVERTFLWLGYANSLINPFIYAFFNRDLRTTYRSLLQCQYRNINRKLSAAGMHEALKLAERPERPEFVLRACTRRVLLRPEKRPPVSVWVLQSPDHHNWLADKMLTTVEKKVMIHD
The target in data set [8] is T3, Alpha-2B adrenergic receptor (Homo sapiens, UniProt P18089).
T3 sequence (P18089 whole entry): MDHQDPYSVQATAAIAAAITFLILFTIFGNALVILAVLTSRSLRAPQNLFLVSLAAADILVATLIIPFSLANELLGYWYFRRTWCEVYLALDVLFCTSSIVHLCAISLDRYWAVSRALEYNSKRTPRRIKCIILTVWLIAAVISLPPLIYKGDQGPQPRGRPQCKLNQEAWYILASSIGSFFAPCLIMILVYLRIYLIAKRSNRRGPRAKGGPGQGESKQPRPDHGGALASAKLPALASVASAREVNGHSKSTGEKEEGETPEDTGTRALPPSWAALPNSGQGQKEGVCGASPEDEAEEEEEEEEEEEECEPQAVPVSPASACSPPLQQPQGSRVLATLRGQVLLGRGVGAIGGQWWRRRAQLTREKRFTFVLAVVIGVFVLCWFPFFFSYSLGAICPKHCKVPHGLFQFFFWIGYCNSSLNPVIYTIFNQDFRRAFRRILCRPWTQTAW
Nature of the data set: Binding affinity to alpha2B adrenergic receptor (unknown origin) by radioligand displacement assay.

Data set [9] concerns the target T1, Kappa-type opioid receptor. The data set can be described thus: Agonist activity at human kappa opioid receptor expressed in CHO-K1 cells assessed as inhibition of forskolin-stimulated cAMP accumulation by HitHunter assay based luminescence analysis. It is filed as functional, cell-based.
Data set [10] addresses T4, Voltage-gated inwardly rectifying potassium channel KCNH2 (Homo sapiens, UniProt Q12809). The data set can be described thus: Binding affinity to hERG at 10 uM by radioligand displacement assay. It is filed as toxicity.
Data set [11] concerns the target T1, Kappa-type opioid receptor. Nature of the data set: Binding affinity to kappa opioid receptor (unknown origin) by radioligand displacement assay.
Data set [12] concerns the target T5, Alpha-2C adrenergic receptor (Homo sapiens, UniProt P18825).
T5 sequence (P18825 whole entry): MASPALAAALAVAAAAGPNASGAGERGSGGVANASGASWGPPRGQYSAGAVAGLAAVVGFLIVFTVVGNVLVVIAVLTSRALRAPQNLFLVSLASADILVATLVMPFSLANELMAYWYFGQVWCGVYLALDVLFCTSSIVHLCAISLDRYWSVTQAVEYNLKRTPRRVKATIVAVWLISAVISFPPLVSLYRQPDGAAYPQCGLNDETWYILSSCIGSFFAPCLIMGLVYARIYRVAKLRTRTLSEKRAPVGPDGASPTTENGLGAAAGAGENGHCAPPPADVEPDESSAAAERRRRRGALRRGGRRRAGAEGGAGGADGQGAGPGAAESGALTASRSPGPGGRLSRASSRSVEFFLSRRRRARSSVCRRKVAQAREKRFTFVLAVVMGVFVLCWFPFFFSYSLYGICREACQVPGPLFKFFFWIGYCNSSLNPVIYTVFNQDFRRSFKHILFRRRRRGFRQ
Nature of the data set: Binding affinity to alpha2C adrenergic receptor (unknown origin) by radioligand displacement assay.

Data set [13] deals with T2, Mu-type opioid receptor.
Description: Binding affinity to mu opioid receptor (unknown origin) by radioligand displacement assay
Data set [14] concerns the target T6, 5-hydroxytryptamine receptor 3A (Homo sapiens, UniProt P46098).
T6 sequence (P46098 whole entry): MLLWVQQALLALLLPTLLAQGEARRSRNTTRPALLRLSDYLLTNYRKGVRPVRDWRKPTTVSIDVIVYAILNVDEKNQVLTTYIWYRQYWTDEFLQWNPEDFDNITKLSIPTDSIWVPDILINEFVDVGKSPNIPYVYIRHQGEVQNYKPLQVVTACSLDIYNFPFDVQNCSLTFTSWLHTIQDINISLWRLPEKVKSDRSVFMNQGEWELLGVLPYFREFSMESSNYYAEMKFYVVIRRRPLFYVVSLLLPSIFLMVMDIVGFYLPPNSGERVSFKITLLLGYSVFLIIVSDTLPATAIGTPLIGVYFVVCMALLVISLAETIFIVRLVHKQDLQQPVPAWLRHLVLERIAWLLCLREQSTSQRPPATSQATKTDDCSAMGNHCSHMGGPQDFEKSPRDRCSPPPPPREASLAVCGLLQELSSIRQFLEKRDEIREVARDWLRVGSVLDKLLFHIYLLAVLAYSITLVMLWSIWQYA
Nature of the data set: Binding affinity to 5HT3 receptor (unknown origin) by radioligand displacement assay.

Data set [15] deals with T2, Mu-type opioid receptor. The data set can be described thus: Agonist activity at human mu opioid receptor expressed in CHO-K1 cells assessed as inhibition of forskolin-stimulated cAMP accumulation by HitHunter assay based luminescence analysis. It is filed as functional, cell-based.
For a further data set, the species on record is Homo sapiens. The data set can be described thus: Selectivity index, ratio of EC50 for agonist activity at human mu opioid receptor expressed in CHO-K1 cells to EC50 for agonist activity at human kappa opioid receptor expressed in CHO-K1 cells. It is filed as cell-based.
Data set [16] deals with T7, Alpha-2A adrenergic receptor (Homo sapiens, UniProt P08913).
T7 sequence (P08913 whole entry): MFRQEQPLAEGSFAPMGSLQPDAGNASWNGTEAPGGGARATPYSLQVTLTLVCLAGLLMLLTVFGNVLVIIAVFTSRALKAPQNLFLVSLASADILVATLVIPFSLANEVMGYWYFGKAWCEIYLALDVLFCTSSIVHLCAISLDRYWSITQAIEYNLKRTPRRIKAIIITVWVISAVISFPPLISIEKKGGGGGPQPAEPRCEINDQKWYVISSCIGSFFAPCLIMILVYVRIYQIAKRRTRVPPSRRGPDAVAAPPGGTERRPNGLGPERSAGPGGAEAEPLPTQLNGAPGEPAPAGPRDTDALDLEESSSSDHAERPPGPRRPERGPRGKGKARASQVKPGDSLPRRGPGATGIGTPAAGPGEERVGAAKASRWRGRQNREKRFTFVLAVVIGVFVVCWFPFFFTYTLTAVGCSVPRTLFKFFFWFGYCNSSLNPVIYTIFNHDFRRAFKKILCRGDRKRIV
Nature of the data set: Binding affinity to alpha2A adrenergic receptor (unknown origin) by radioligand displacement assay.

The nature of data set [17]: Binding affinity to alpha7 […] receptor (unknown origin) by radioligand displacement assay. Also noted: species or system Homo sapiens.
Data set [18] in a line: Binding affinity to Sigma2 opioid receptor (unknown origin) by radioligand displacement assay. Also noted: species or system Homo sapiens.
The target of data set [19] is T8, Alpha-1A adrenergic receptor (Homo sapiens, UniProt P35348).
T8 sequence (P35348 whole entry): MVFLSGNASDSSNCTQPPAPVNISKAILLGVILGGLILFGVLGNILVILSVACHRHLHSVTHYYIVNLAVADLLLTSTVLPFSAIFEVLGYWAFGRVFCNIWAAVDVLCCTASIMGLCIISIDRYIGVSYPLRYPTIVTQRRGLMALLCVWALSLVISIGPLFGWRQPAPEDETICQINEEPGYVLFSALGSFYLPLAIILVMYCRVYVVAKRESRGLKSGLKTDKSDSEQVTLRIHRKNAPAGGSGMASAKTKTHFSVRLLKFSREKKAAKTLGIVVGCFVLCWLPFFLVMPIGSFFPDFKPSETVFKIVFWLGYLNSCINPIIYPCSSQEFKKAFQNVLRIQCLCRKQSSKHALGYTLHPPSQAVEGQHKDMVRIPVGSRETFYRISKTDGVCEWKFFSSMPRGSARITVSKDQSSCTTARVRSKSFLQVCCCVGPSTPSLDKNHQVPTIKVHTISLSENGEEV
Nature of the data set: Binding affinity to alpha1A adrenergic receptor (unknown origin) by radioligand displacement assay.

Data set [20] deals with T9, Alpha-1B adrenergic receptor (Homo sapiens, UniProt P35368).
T9 sequence (P35368 whole entry): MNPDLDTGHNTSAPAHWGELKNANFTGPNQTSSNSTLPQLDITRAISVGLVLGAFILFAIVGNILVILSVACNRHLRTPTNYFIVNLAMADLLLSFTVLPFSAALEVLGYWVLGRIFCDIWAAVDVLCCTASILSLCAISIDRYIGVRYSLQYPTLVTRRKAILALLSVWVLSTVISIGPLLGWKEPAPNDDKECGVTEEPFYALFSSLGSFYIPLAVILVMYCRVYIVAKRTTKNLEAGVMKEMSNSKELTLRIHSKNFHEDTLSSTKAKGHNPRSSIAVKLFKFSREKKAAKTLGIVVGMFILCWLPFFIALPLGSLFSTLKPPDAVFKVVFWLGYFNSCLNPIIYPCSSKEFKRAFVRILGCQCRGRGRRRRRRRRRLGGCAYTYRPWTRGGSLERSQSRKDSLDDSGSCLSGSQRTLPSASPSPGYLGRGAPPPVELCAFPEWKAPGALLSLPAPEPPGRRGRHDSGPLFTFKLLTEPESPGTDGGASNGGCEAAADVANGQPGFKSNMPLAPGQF
The data set can be described thus: Binding affinity to alpha1B adrenergic receptor (unknown origin) by radioligand displacement assay.

For data set [21], the target named is T4, Voltage-gated inwardly rectifying potassium channel KCNH2. Nature of the data set: Binding affinity to hERG by radioligand displacement assay. It is filed as toxicity.

T2 sequence (P35372 whole entry): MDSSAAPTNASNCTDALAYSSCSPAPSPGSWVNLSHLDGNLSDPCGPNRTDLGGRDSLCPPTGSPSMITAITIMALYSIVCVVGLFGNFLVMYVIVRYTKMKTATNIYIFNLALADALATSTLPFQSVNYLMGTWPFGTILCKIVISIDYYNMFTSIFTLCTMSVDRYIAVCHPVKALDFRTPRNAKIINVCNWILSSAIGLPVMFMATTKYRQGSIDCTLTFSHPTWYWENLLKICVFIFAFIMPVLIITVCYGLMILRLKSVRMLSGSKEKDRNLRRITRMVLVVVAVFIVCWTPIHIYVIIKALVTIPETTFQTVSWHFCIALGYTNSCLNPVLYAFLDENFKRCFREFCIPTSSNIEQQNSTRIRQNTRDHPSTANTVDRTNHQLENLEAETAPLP
T4 sequence (Q12809 whole entry): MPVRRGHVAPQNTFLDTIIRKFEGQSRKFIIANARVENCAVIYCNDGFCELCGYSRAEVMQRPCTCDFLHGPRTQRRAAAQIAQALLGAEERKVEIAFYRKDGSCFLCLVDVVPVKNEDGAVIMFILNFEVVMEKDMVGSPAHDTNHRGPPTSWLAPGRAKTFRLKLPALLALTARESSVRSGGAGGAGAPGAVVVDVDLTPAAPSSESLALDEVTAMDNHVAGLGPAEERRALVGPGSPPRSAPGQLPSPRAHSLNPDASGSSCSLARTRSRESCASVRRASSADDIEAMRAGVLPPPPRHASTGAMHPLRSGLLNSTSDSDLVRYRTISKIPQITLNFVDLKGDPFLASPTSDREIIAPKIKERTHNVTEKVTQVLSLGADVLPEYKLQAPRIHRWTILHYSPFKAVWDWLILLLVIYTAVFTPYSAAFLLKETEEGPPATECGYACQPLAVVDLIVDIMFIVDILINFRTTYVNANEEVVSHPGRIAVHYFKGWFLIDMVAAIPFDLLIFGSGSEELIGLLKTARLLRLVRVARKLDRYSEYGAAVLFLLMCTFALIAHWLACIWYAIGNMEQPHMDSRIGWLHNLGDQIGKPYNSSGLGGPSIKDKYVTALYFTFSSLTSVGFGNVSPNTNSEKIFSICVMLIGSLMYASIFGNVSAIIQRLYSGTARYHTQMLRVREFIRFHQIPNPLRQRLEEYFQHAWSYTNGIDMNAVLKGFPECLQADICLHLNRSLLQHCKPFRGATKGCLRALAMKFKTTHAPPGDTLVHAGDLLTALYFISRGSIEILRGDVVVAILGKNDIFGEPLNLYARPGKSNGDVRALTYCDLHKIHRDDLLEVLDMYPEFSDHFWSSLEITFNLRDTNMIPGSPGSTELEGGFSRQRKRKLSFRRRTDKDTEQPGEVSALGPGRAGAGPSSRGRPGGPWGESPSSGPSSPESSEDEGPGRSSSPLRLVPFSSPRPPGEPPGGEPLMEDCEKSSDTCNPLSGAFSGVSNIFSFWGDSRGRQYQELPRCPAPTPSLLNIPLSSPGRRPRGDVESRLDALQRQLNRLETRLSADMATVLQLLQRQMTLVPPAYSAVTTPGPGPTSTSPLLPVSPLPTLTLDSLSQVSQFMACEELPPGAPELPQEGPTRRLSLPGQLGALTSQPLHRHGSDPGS
Chain of Delta-type opioid receptor (Homo sapiens) (P41143 whole entry): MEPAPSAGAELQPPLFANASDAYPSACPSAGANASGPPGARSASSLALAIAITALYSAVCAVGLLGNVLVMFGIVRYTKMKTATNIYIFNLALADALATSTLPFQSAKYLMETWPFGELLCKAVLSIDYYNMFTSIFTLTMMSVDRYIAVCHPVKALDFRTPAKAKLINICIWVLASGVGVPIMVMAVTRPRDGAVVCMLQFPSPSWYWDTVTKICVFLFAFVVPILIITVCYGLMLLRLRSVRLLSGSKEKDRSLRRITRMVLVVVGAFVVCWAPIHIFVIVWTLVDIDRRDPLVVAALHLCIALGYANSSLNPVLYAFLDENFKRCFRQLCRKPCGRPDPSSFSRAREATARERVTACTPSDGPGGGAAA

For the compound `C/C=C1/CN2CC[C@]34C(=C(C(=O)OC)[C@H]1C[C@H]23)Nc1ccc(-c2ccoc2)cc14`, the outcome in data set [1] was inactive. Also, the Activity entry in data set [2] is on record as “Active; Less Efficacious Than U50488”. In addition, the Emax in [3] was found to be 102%; on Mu-type opioid receptor [4] (filed as agonist), 99%.
On to `C/C=C1/CN2CC[C@]34C(=C(C(=O)OC)[C@H]1C[C@H]23)Nc1ccccc14` [AKUAMMICINE], for which the outcome in [5] was Active. The Ki in data set [6] came out at 2930 nM; in data set [7] it was 1410 nM; in data set [8], 1210 nM; in data set [11] it was 166 nM; in data set [12] it was 4.79 µM; on Mu-type opioid receptor [13] it was 3.73 µM. For the same compound, the affinity in data set [14], expressed as Ki, was 5490 nM. Moreover, the EC50 in data set [9] worked out at 1200 nM. The compound also came in with an Activity in data set [10] below 50%. In data set [3], the Emax turned out to be 91%.
Take `C/C=C1/CN2CC[C@]34C(=C(C(=O)OC)[C@H]1C[C@H]23)Nc1ccc([N+](=O)[O-])cc14`: the figures for the EC50 (on Mu-type opioid receptor [15]; in data set [9]) were 4 µM and 160 nM, respectively. Besides, in the data set listed under Homo sapiens, the Ratio EC50 stood at 25. The outcome in data set [1] was inactive. The Emax in data set [3] was 96%; at Mu-type opioid receptor [4], below 10%.
`C/C=C1/CN2CC[C@]34C(=C(C(=O)OC)[C@H]1C[C@H]23)Nc1ccc(Br)cc14`: the Ki was 721 nM in data set [6]; above 10 µM in [16]; 7 µM in data set [17]; 1520 nM in [7]; 2620 nM in data set [18]; 1250 nM in data set [8]. Further, the Ki in data set [12] amounted to 2.91 µM; in data set [19], 1000 nM; in data set [14] it was 210 nM; in data set [20], 2880 nM; in data set [21], 1340 nM.
